Data taken from patent publication US7928102B2, “Irradiated compositions and treatment of cancers with radiation in combination with taurolidine and/or taurultam” (Ed. Geistlich Soehne AG fuer Chemische Industrie, priority 2006, dated 2011).
Where two headings read alike, the source gives them in different places. Each block holds one compound with its values, some of them ahead of it.

How the values were obtained:
[1] = system: C2C12 Muscle Myoblast Cells; conditions: mouse
Description: (§2) In the present report, the acute toxicity of dehydrotaurultam was evaluated compared to taurultam. For this, two different categories of cells (muscle cells and fibroblasts) were incubated with three different concentrations of the two test substances for different periods of time. A possible toxic effect of the test substances on the cells was analyzed 20 hours later. The measures to determine possible cell damage were viability and level of cell adhesion.
(§3) The COS-7 and C2C12 cell lines were plated at 50% confluence on 48 well dishes, and incubated for 24 hours at 37°. Then the media were changed. To this, either unmodified medium (control), or medium containing 0.1%, 0.25% or 0.5% taurultam or dehydrotaurultam was used. The cell cultures were incubated at 37° for 5, 10, 20, 60 and 120 minutes, and then washed three times with fresh medium. After a further 20 hours in the incubator at 37°, the cells were evaluated.
(§4) As a measure of viability, the extent of cell adhesion was evaluated microscopically.
(§5) Cell adhesion was analyzed after 20 hours of incubation with taurultam and dehydrotaurultam respectively.
(§6) Muscle cells were incubated with taurultam or dehydrotaurultam (0.1%, 0.25%, 0.5%) for 5, 10, 20, 60 and 120 minutes at 37°. After rinsing them three times with a regular medium, the cultures were incubated for another 20 h. Then the extent of cells adhesion was examined microscopically.

COS-7 Fibroblasts [2] = system: COS-7 Fibroblasts
Description: (§7) For this, two different categories of cells (muscle cells and fibroblasts) were incubated with three different concentrations of the two test substances for different periods of time. A possible toxic effect of the test substances on the cells was analyzed 20 hours later. The measures to determine possible cell damage were viability and level of cell adhesion.
as §3, §4, §5
(§8) Fibroblasts were incubated with taurultam or dehydrotaurultam (0.1%, 0.25%, 0.5%) for 5, 10, 20, 60 and 120 minutes at 37°. After rinsing them three times with a regular medium, the cultures were incubated for another 20 h. Then the extent of adhesion of the cells was examined microscopically.

[3] = Gamma irradiation of aqueous 1% taurolidine solution, radiolysis products; assay type: physicochemical; conditions: approx. 25 gKy, aqueous 1% solution in 500 ml glass bottles; for content after γ-irradiation of a 1% taurolidine solution: IR, HPLC/MS, amino acid analysis
Description: Examination of an aqueous 1% taurolidine solution for radiolysis products. After γ-irradiation (approx. 25 gKy) of a 1% taurolidine solution contained in 500 ml glass bottles the following products can be isolated, or quantitatively determined by means of IR spectroscopy, HPLC/MS analysis, amino acid analysis: […]

[4] = system: Murine melanoma B16 F10 cells; assay: Cell cycle by FACScan analysis; assay type: cell-based
Description: (§1) Murine melanoma B16 4A5 and B16 F10 cells were treated with taurolidine (0-200 μg/ml), X-ray (Roentgen) radiation (0-4 Gy), or their combination for different time points. Cell cycle was assessed by FACScan analysis. Cell apoptosis and necrosis were determined by FACScan analysis and MTT assay, and further confirmed by DNA gel electrophoresis.

[5] = system: Murine melanoma B16 4A5 cells; assay: Cell cycle by FACScan analysis; assay type: cell-based
Description: as §1

B16 4A5 cells = assay: Melanoma tumour growth in vivo, B16 4A5 cells injected into right flank; design: species or system C57BL/6 mice
Description: C57BL/6 mice (8-10 week old) (n=120) were injected with B16 4A5 cells (5×10^5 per mouse) into the right flank and divided into control, PVP (solvent for taurolidine), taurolidine (5 mg/mouse, i.p), radiation (5 Gy/mouse), and taurolidine plus radiation. Tumour growth rate, tumour/body weight ratio, lung metastases, and survival rate were recorded. Intra-tumour cell mitosis/apoptosis index, microvessel desity, and splenic cytotoxic T-lymphocyte (CTL) and nature killer (NK) cell-mediated cytotoxic activity were also accessed.

[6] = system: Murine melanoma B16 F10 cells; assay: Cell apoptosis and necrosis by FACScan analysis, MTT assay, DNA gel electrophoresis; assay type: cell-based; conditions: taurolidine 10-200 μg/ml
Description: as §1

[7] = system: Murine melanoma B16 4A5 cells; assay: as above; assay type: cell-based
Description: as §1

[8] = Evaluation of crystalline taurolidine powder after sterilisation by gamma-radiation; assay type: physicochemical
Description: Two batches of normal crystalline taurolidine powder were produced and sterilised by gamma-radiation. The taurolidine crystals 0.5 g were weighed into 5 ml vials under sterile conditions and laminar flow. The vials were closed by rubber stoppers and seal caps. The closed vials were then radiated with gamma rays of 25 kGy (Range certification 26-30 kGy) and subsequently analysed.

COS-7 Fibroblasts [9] = assay: Acute toxicity: cell adhesion evaluated microscopically; conditions: for Adhesion of COS-7 Fibroblasts: then 20 h, % of control cultures
Description: as §7, §3, §4, §5, §8

[10] = system: C2C12 Muscle Myoblast Cells; assay: as above; conditions: for Adhesion of C2C12 Muscle Myoblast Cells: then 20 h, % of control cultures
Description: as §2, §3, §4, §5, §6

[11] = taurolidine alone, 0-200 μg/ml, different time points
[12] = taurolidine in combination with X-ray radiation (0-4 Gy)
[13] = taurolidine 5 mg/mouse i.p. plus radiation 5 Gy/mouse
[14] = taurolidine 5 mg/mouse i.p. plus radiation 5 Gy/mouse vs taurolidine alone (p<0.01) or radiation alone (p<0.01)

Compound: O=S1(=O)CCN=CN1 [dehydrotaurultam]
cell adhesion, muscle cells ([1]; 0.25 %): 80%
cell adhesion, muscle cells ([1]; 0.5 %): 80-90%
Adhesion of C2C12 Muscle Myoblast Cells ([1]; 5 min, 0.1 %): 100%
Adhesion of C2C12 Muscle Myoblast Cells ([1]; 5 min, 0.25 %): 100%
Adhesion of C2C12 Muscle Myoblast Cells ([1]; 5 min, 0.5 %): 100%
Adhesion of C2C12 Muscle Myoblast Cells ([1]; 10 min, 0.1 %): 100%
Adhesion of C2C12 Muscle Myoblast Cells ([1]; 10 min, 0.25 %): 100%
Adhesion of C2C12 Muscle Myoblast Cells ([1]; 10 min, 0.5 %): 100%
Adhesion of C2C12 Muscle Myoblast Cells ([1]; 20 min, 0.1 %): 100%
Adhesion of C2C12 Muscle Myoblast Cells ([1]; 20 min, 0.25 %): 90%
Adhesion of C2C12 Muscle Myoblast Cells ([1]; 20 min, 0.5 %): 90%
Adhesion of C2C12 Muscle Myoblast Cells ([1]; 60 min, 0.1 %): 100%
Adhesion of C2C12 Muscle Myoblast Cells ([1]; 60 min, 0.25 %): 80%
Adhesion of C2C12 Muscle Myoblast Cells ([1]; 60 min, 0.5 %): 90%
cell adhesion, muscle cells ([1]; 2 h): 80-90%
Adhesion of C2C12 Muscle Myoblast Cells ([1]; 120 min, 0.1 %): 90%
Adhesion of C2C12 Muscle Myoblast Cells ([1]; 120 min, 0.25 %): 80%
Adhesion of C2C12 Muscle Myoblast Cells ([1]; 120 min, 0.5 %): 80%
cell adhesion, fibroblasts (COS-7 Fibroblasts [2]): not detected
cell adhesion, fibroblasts (COS-7 Fibroblasts [2]; African green monkey, 0.25 %): 80%
Adhesion of COS-7 Fibroblasts (COS-7 Fibroblasts [2]; African green monkey, 5 min, 0.1 %): 100%
Adhesion of COS-7 Fibroblasts (COS-7 Fibroblasts [2]; African green monkey, 5 min, 0.25 %): 100%
Adhesion of COS-7 Fibroblasts (COS-7 Fibroblasts [2]; African green monkey, 5 min, 0.5 %): 100%
Adhesion of COS-7 Fibroblasts (COS-7 Fibroblasts [2]; African green monkey, 10 min, 0.1 %): 100%
Adhesion of COS-7 Fibroblasts (COS-7 Fibroblasts [2]; African green monkey, 10 min, 0.25 %): 100%
Adhesion of COS-7 Fibroblasts (COS-7 Fibroblasts [2]; African green monkey, 10 min, 0.5 %): 95%
Adhesion of COS-7 Fibroblasts (COS-7 Fibroblasts [2]; African green monkey, 20 min, 0.1 %): 100%
Adhesion of COS-7 Fibroblasts (COS-7 Fibroblasts [2]; African green monkey, 20 min, 0.25 %): 90%
Adhesion of COS-7 Fibroblasts (COS-7 Fibroblasts [2]; African green monkey, 20 min, 0.5 %): 90%
Adhesion of COS-7 Fibroblasts (COS-7 Fibroblasts [2]; African green monkey, 60 min, 0.1 %): 100%
Adhesion of COS-7 Fibroblasts (COS-7 Fibroblasts [2]; African green monkey, 60 min, 0.25 %): 90%
Adhesion of COS-7 Fibroblasts (COS-7 Fibroblasts [2]; African green monkey, 60 min, 0.5 %): 80%
Adhesion of COS-7 Fibroblasts (COS-7 Fibroblasts [2]; African green monkey, 120 min, 0.1 %): 90%
Adhesion of COS-7 Fibroblasts (COS-7 Fibroblasts [2]; African green monkey, 120 min, 0.25 %): 80%
Adhesion of COS-7 Fibroblasts (COS-7 Fibroblasts [2]; African green monkey, 120 min, 0.5 %): 80%
amount after γ-irradiation of a 1% taurolidine solution [3]: 780 mg
content after γ-irradiation of a 1% taurolidine solution [3]: 0.156%

Compound: O=S1(=O)CCN(CN2CCS(=O)(=O)NC2)CN1 [taurolidine]
cell cycle [4, 11]: cell cycle at G0/G1 phase with an enhanced sub-G1 population in a dose- and time-dependent manner
cell cycle [4, 12]: cell cycle arrest at G2/M phase with absence of sub-G1 population
cell cycle [5, 11]: cell cycle at G0/G1 phase with an enhanced sub-G1 population in a dose- and time-dependent manner
cell cycle [5, 12]: cell cycle arrest at G2/M phase with absence of sub-G1 population
nature killer (NK) cell cytotoxic activity (B16 4A5 cells; [13]): enhanced
splenic cytotoxic T-lymphocyte (CTL) cytotoxic activity (B16 4A5 cells; [13]): enhanced
survival (B16 4A5 cells; [13]): improved survival
lung metastatic nodules (B16 4A5 cells; [14]): greater reduction
tumour growth rate (B16 4A5 cells; [14]): greater reduction
tumour/body weight ratio (B16 4A5 cells; [14]): greater reduction
primary and metastatic melanoma tumour growth (B16 4A5 cells; taurolidine 5 mg/mouse i.p. plus radiation 5 Gy/mouse, compared to untreated animals (p<0.001)): significantly attenuated
intra-tumour cell mitosis/apoptosis index (B16 4A5 cells; taurolidine plus radiation group): significant decreased
cell apoptosis [6]: dose- and time-dependent cell apoptosis
apoptosis ([7]; 25 μg/ml taurolidine alone): failed to induce apoptosis
apoptosis ([7]; 25 μg/ml taurolidine in combination with 0.5 Gy radiation): 70%
cell apoptosis ([7]; taurolidine 10-200 μg/ml): dose- and time-dependent cell apoptosis
Solubility [8]: 1%
evaluation of stability after sterilization by gamma radiation [8]: identical with non-radiated crystals
Endotoxins ([8]; crystalline powder after gamma rays of 25 kGy): negative
amount after γ-irradiation of a 1% taurolidine solution [3]: 3,900 mg
content after γ-irradiation of a 1% taurolidine solution [3]: 0.78%

Compound: OCO [methylene glycol]
amount after γ-irradiation of a 1% taurolidine solution [3]: 81 mg
content after γ-irradiation of a 1% taurolidine solution [3]: 0.0160%

Compound: O=S1(=O)CCNCN1 [taurultam]
Adhesion of COS-7 Fibroblasts (COS-7 Fibroblasts [9]; 0.1%, incubation 5 min): 100%
Adhesion of COS-7 Fibroblasts (COS-7 Fibroblasts [9]; 0.1%, incubation 10 min): 100%
Adhesion of COS-7 Fibroblasts (COS-7 Fibroblasts [9]; 0.1%, incubation 20 min): 90%
Adhesion of COS-7 Fibroblasts (COS-7 Fibroblasts [9]; 0.1%, incubation 60 min): 80%
Adhesion of COS-7 Fibroblasts (COS-7 Fibroblasts [9]; 0.1%, incubation 120 min): 70%
cell adhesion, fibroblasts (COS-7 Fibroblasts [9]; 0.1%, more extended incubation periods (60 and 120 minutes)): limited adhesion was observed
Adhesion of COS-7 Fibroblasts (COS-7 Fibroblasts [9]; 0.25%, incubation 5 min): 95%
Adhesion of COS-7 Fibroblasts (COS-7 Fibroblasts [9]; 0.25%, incubation 10 min): 90%
Adhesion of COS-7 Fibroblasts (COS-7 Fibroblasts [9]; 0.25%, incubation 20 min): 60%
Adhesion of COS-7 Fibroblasts (COS-7 Fibroblasts [9]; 0.25%, incubation 60 min): 60%
Adhesion of COS-7 Fibroblasts (COS-7 Fibroblasts [9]; 0.25%, incubation 120 min): 70%
cell adhesion, fibroblasts (COS-7 Fibroblasts [9]; 0.25%, incubation period of at least 20 minutes): 60%
Adhesion of COS-7 Fibroblasts (COS-7 Fibroblasts [9]; 0.5%, incubation 5 min): 95%
Adhesion of COS-7 Fibroblasts (COS-7 Fibroblasts [9]; 0.5%, incubation 10 min): 90%
Adhesion of COS-7 Fibroblasts (COS-7 Fibroblasts [9]; 0.5%, incubation 20 min): 70%
Adhesion of COS-7 Fibroblasts (COS-7 Fibroblasts [9]; 0.5%, incubation 60 min): 60%
Adhesion of COS-7 Fibroblasts (COS-7 Fibroblasts [9]; 0.5%, incubation 120 min): 40%
cell adhesion, fibroblasts (COS-7 Fibroblasts [9]; 0.5%, more extended incubation periods (beyond 10 minutes)): ≥ 40%
cell adhesion, fibroblasts (COS-7 Fibroblasts [9]; most extreme conditions (0.5%, 1-2 h)): 40-60%
Adhesion of C2C12 Muscle Myoblast Cells ([10]; 0.1%, incubation 5 min): 100%
Adhesion of C2C12 Muscle Myoblast Cells ([10]; 0.1%, incubation 5 min, listed as Taurultam): 100%
Adhesion of C2C12 Muscle Myoblast Cells ([10]; 0.1%, incubation 10 min): 100%
Adhesion of C2C12 Muscle Myoblast Cells ([10]; 0.1%, incubation 10 min, listed as Taurultam): 100%
Adhesion of C2C12 Muscle Myoblast Cells ([10]; 0.1%, incubation 20 min): 100%
Adhesion of C2C12 Muscle Myoblast Cells ([10]; 0.1%, incubation 20 min, listed as Taurultam): 100%
Adhesion of C2C12 Muscle Myoblast Cells ([10]; 0.1%, incubation 60 min): 90%
Adhesion of C2C12 Muscle Myoblast Cells ([10]; 0.1%, incubation 120 min): 60%
Adhesion of C2C12 Muscle Myoblast Cells ([10]; 0.1%, incubation 120 min, listed as Taurultam): 60%
Adhesion of C2C12 Muscle Myoblast Cells ([10]; 0.25%, incubation 5 min): 100%
Adhesion of C2C12 Muscle Myoblast Cells ([10]; 0.25%, incubation 10 min): 95%
Adhesion of C2C12 Muscle Myoblast Cells ([10]; 0.25%, incubation 20 min): 90%
Adhesion of C2C12 Muscle Myoblast Cells ([10]; 0.25%, incubation 60 min): 70%
Adhesion of C2C12 Muscle Myoblast Cells ([10]; 0.25%, incubation 120 min): 60%
cell adhesion, muscle cells ([10]; 0.25%, incubation periods of 60 and 120 minutes): 60-70%
Adhesion of C2C12 Muscle Myoblast Cells ([10]; 0.5%, incubation 5 min): 95%
Adhesion of C2C12 Muscle Myoblast Cells ([10]; 0.5%, incubation 10 min): 90%
Adhesion of C2C12 Muscle Myoblast Cells ([10]; 0.5%, incubation 20 min): 90%
Adhesion of C2C12 Muscle Myoblast Cells ([10]; 0.5%, incubation 60 min): 60%
Adhesion of C2C12 Muscle Myoblast Cells ([10]; 0.5%, incubation 120 min): 50%
cell adhesion, muscle cells ([10]; 0.5%, incubation periods of 60-120 minutes): 50-60%
cell adhesion, muscle cells ([10]; all concentrations (0.1-0.5%), 2-hour incubation period): 50-60%

Next, values leading:

amount after γ-irradiation of a 1% taurolidine solution [3]: 9.7 mg
content after γ-irradiation of a 1% taurolidine solution [3]: 0.0019%
Compound: O=C=O [CO2]

amount after γ-irradiation of a 1% taurolidine solution [3]: 53 mg
content after γ-irradiation of a 1% taurolidine solution [3]: 0.0106%
Compound: NCCS(=O)(=O)O [taurine]

amount after γ-irradiation of a 1% taurolidine solution [3]: 85.5 mg
content after γ-irradiation of a 1% taurolidine solution [3]: 0.0171%
Compound: NCCS(N)(=O)=O [taurinamide]
